Experimental data from US20200171117A1, “DRY EYE BOTANICALS” (ACCESS BUSINESS GROUP INTERNATIONAL LLC, priority 2018, published 2020).
Where “and” joins values, the source holds several entries; their conditions need not be identical. Equal entries are not always repeated.

Key:
[1] = test system: HMGEC (immortalized human meibomian gland epithelial cells); assay: PPARγ-mediated lipid synthesis activity in HMGECs (LipidTox Green neutral lipid staining); type: cell-based; settings: for Effect on lipid synthesis (in words): compared with Rosi
Protocol: Extracts of loquat and ginger identified in Example 1 are tested for their effect on lipid synthesis and PPARγ receptor activation using HMGECs. In particular, HMGECs are plated on collagen coated glass cover slips and treated with samples of each extract (varying concentrations in Media 1 with 0.1% DMSO), positive control (Rosi, 30 μM in Media 1 with 0.1% DMSO), and negative control (Media 1 with 0.1% DMSO) and incubated for 6 days. The treated cells are then fixed, stained with LipidTox Green, and the area of neutral lipid staining quantified.

[2] = test system: PPARγ response genes ADFP, ELOVL4, and ANGPTL4; assay: Real-time PCR of PPARγ response gene expression; type: cell-based; settings: FIGS. 1-4
Protocol: Loquat Extract #1 (“538”), and known phytochemical components thereof (oleanolic acid (“OA”); ursolic acid (“UA”)), are analyzed by real-time PCR (BioRad CFX96 Thermal Cycler, Hercules, Calif. (or equivalent)), to assess sample-induced expression of the PPARγ response genes ADFP, ELOVL4, and ANGPTL4 via mRNA quantification. In particular, samples are prepared and analyzed according to the procedure set forth in Jester et. al., “PPARγ regulates mouse meibocyte differentiation and lipid synthesis,” The Ocular Surface 14.4 (2016): 484-494, the disclosure of which is herein incorporated by […]. The results of the quantification are shown in FIGS. 1-4, where the vertical (Y) axis of each plot corresponds to the fold change in response observed.
To assess the effects on gene expression mediation via PPARγ signaling, a PPARγ-specific antagonist (T0070907; (“T”)) is added to inhibit PPARγ signaling. […] As such, Loquat leaf is shown to have specific and synergistic PPARγ agonist activity that may be unrelated to individual phytochemical components thereof.

| SMILES | Effect on lipid synthesis (in words) [1] | PPARγ response gene expression (mRNA of ADFP, ELOVL4, ANGPTL4; PPARγ), fold change, in words [2] | % Lipid Mean (percent positive control, Rosi set at 100%) ([1]; 30 μM, 6 days) | Nuclei Mean ([1]; 30 μM, 6 days) |
| --- | --- | --- | --- | --- |
| CC1(C)CC[C@]2(C(=O)O)CC[C@]3(C)C(=CC[C@@H]4[C@@]5(C)CC[C@H](O)C(C)(C)[C@@H]5CC[C@]43C)[C@@H]2C1 [oleanolic acid] | no individual effects | no individual effects |  |  |
| C[C@H]1[C@H](C)CC[C@]2(C(=O)O)CC[C@]3(C)C(=CC[C@@H]4[C@@]5(C)CC[C@H](O)C(C)(C)[C@@H]5CC[C@]43C)[C@H]12 [ursolic acid] | no individual effects | no individual effects |  |  |
| CN(CCOc1ccc(CC2SC(=O)NC2=O)cc1)c1ccccn1 (stereo not drawn) [Rosi, Rosiglitazone] |  |  | 97.5% and 100% | 1622.13 and 1070 |
